Test results reported in patent US4661516A, “Diaminocyclohexane platinum complexes” (Research Corporation, priority 1984, dated 1987).
Where “and” joins values, the source holds several entries; their conditions need not be identical. Identical values can stand only once. Like-named read-outs stand apart in the source and are kept apart here.

Assays:
[1] = tested on: L1210 leukemia cells (L1210/PDD); test: In vitro cytotoxicity / cross-resistance, L1210/PDD (L1210/DDP) cells resistant to cisdiamminedichloroplatinum(II); type: cell-based; details: for ID50 L1210/DDP: Tables VII and VIII, 5760 min; for ID50 L1210/PDD: 96 hours
Protocol: Four ml of cell suspension were added to culture tubes and the appropriate concentration (0.01, 0.1, 1 or 10 μg/ml final drug concentration) was added. After 96 hours the cell concentration of control and experimental cultures were calculated with the aid of a Coulter Counter® Model ZBf and the percent inhibition calculated.

B16 cells = test: Melanotic melanoma test, i.p. inoculated B16 melanoma; type: in vivo, BDF1 mice; details: for Maximal Effective Dose: B16, i.p. days 1, 5 and 9; for % T/C / Long Term Survivors: B16, i.p. days 1, 5 and 9, at maximal effective dose; for Long Term Survivors: 60 days
Protocol: The animals used were BDF1 mice, all of the same sex, weighing a minimum of 18 g. and all within a 4 g. weight range. There were 6 animals per test group. […] The test compounds were administered intraperitoneally on days 1, 5 and 9 at various doses. The animals were weighed and survivors were recorded on a regular basis for 60 days. The median survival time and the ratio of survival time for treated (T)/control (C) animals were calculated. […] The criterion for efficacy is T/C×100≥125%.

[2] = tested on: Wild type L1210 leukemic cells; test: In vitro cytotoxicity, wild type L1210 leukemic cells (L1210/0); type: cell-based; details: for ID50 L1210/0: 4320 min
Protocol: Four ml of cell suspension (10^5 cells/ml) are added to culture tubes and the appropriate concentration (0.01, 0.1, 1 or 10 μg/ml final concentration) of drug added to the culture tubes. After 72 hours of incubation, the cell concentration of control and experimental cultures are determined with the aid of a Coulter Counter® Model ZBf and the percent inhibition calculated. […]

L1210/0 leukemia cells = test: In vivo anti-tumor activity, L1210 (L1210/0), multiple i.p. doses; set-up: species or system BDF1 mice; details: for Maximal Effective Dose: i.p. on days 1, 5 and 9
Protocol: BDF1 mice were inoculated intraperitoneally with 10^6 L1210 cells. About 24 hours after inoculation of the cells, the mice were injected intraperitoneally with varying dosages of complexes of the present invention. Six mice were used for each dosage level in each experiment with an equal number of control mice inoculated with 10^6 L1210 cells and left untreated with a given complex. The results [%T/C=(survival time of treated animals/survival time of control animals)×100] are set forth below. Long term survival signifies that animals were alive 60 days after inoculation with L1210 cells.
The procedure of Example 16 was repeated except that the treated animals were injected with multiple doses of the complex as indicated below:
(§1) The anti-tumor activity of compound number 3 was evaluated against cells sensitive to (L1210/0) and resistant to (L1210/PDD) the standard platinum complex cis-diamminedichloroplatinum(II).
The following complexes were tested in vivo oncolytic activity following 3 i.p. injections (days 1, 5, 9) according to the protocol described in Examples 16 and 17.
BDF1 mice were innoculated intraperitoreally with 10^6 L1210 leukemia cells and treatment was begun on the next day (day 1). Two treatment schedules, i.e. single i.p. injection of the drug and i.p. injections on days 1, 5 and 9 according to the protocol described in Examples 16 and 17 were used.

L1210 cells = test: In vivo anti-tumor activity, L1210, single i.p. injection; set-up: species or system BDF1 mice; details: for % T/C: single i.p.
Protocol: About 24 hours after inoculation of the cells, the mice were injected intraperitoneally with varying dosages of complexes of the present invention. […] Long term survival signifies that animals were alive 60 days after inoculation with L1210 cells.

Male albino mice = test: Acute toxicity, single intraperitoneal injection (Example 19); type: in vivo; details: single i.p.
Protocol: Fourteen days after treatment all surviving mice were sacrified and the LD10, LD50 and LD90 were calculated.

L1210/PDD = type: in vivo, BDF1 mice; details: days 1,5,9
Protocol: as §1

[3] = L1210/0, protocol of Example 14, Tables VII and VIII
[4] = Tables X and XI, days 1, 5 and 9, at maximal effective dose, alive 60 days after tumor inoculation
[5] = Tables X and XI, i.p. on days 1, 5 and 9, at maximal effective dose
[6] = Example 18, L1210/0, 25 mg/kg, days 1,5,9
[7] = Example 18, L1210/0, 50 mg/kg, days 1,5,9

In the case of “mono-N--benzyliminodiacetato [Identifier No. 15a]”, the “ID50 L1210/DDP” value [1] is reported as 2.4 µg/mL, the “Maximal Effective Dose” value (B16 cells) is reported as 12.5 mg/kg and the “% T/C” value (B16 cells) is reported as 252%. The “Long Term Survivors” value (B16 cells) was 3/6, the “ID50 L1210/0” value [2, 3] was 1.0 µg/mL and the “Long Term Survivors” value (L1210/0 leukemia cells; [4]) was 4/6. For the same molecule, the “Maximal Effective Dose” value (L1210/0 leukemia cells; Tables X and XI) was 6.25 mg/kg and the “% T/C” value (L1210/0 leukemia cells; [5]) was 620%.

In the case of `N[C@@H]1CCCC[C@H]1N.O=C([O-])CN(CCO)CC(=O)[O-].[Pt+2]` [Identifier No. 12a, mono-N--hydroxyethyliminodiacetato], the “ID50 L1210/DDP” value [1] is reported as 1.8 µg/mL, the “Maximal Effective Dose” value (B16 cells) is reported as 25 mg/kg and the “% T/C” value (B16 cells) is reported as 265%. The “Long Term Survivors” value (B16 cells) was 4/6, the “ID50 L1210/0” value [2, 3] was 1.4 µg/mL and the “Long Term Survivors” value (L1210/0 leukemia cells; [4]) was 2/6. The “Maximal Effective Dose” value (L1210/0 leukemia cells; Tables X and XI) was 6.25 mg/kg and the “% T/C” value (L1210/0 leukemia cells; [5]) was 384%.

For `N.N.[Cl][Pt][Cl]` [DDP, diamminedichloroplatinum II, reference compound], the “ID50 L1210/PDD” value [1] was 5.5 µg/mL, the “Maximal Effective Dose” value (B16 cells) was 5 mg/kg and the “% T/C” value (B16 cells) was 172%. The “Long Term Survivors” value (B16 cells) was 1/6, the “ID50 L1210/0” value ([2]; L1210/0, Example 15 table) was 0.1 µg/mL and the “Long Term Survivors” value (L1210/0 leukemia cells; [4]) was 1/6. The “Maximal Effective Dose” value (L1210/0 leukemia cells; Tables X and XI) was 5 mg/kg, the “% T/C” value (L1210/0 leukemia cells; [5]) was 210% and 220% and the “Maximal Effective Dose” value (L1210 cells; Table IX, single i.p. injection) was 9 mg/kg. The “% T/C” value (L1210 cells; Table IX, at maximal effective dose) was 150%.

With “mono-N--phenyliminodiacetato [Identifier No. 14a]” the “ID50 L1210/DDP” value [1] was 0.6 µg/mL, the “Maximal Effective Dose” value (B16 cells) was 25 mg/kg and the “% T/C” value (B16 cells) was 160%. The “Long Term Survivors” value (B16 cells) was 3/6, the “ID50 L1210/0” value [2, 3] was 0.7 µg/mL and the “Long Term Survivors” value (L1210/0 leukemia cells; [4]) was 4/6. For the same molecule, the “Maximal Effective Dose” value (L1210/0 leukemia cells; Tables X and XI) was 6.25 mg/kg and the “% T/C” value (L1210/0 leukemia cells; [5]) was 578%.

With `NC1CCCCC1N.O.O=C1OC(C(O)CO)C([O-])=C1O.O=C1OC(C(O)CO)C([O-])=C1O.[Pt+2]` (stereo not drawn) [Compound 3, cis-bis-ascorbato(DACH)Pt(II).1H2 O] the “ID50 L1210/DDP” value [1] was 5.0 µg/mL, the “ID50 L1210/PDD” value [1] was 2.6 µg/mL and the DEATHS/TREATED (Male albino mice; 110 mg/kg) was 1/6. The DEATHS/TREATED (Male albino mice; 125 mg/kg) was 2/6, the DEATHS/TREATED (Male albino mice; 140 mg/kg) was 4/6 and the DEATHS/TREATED (Male albino mice; 175 mg/kg) was 6/6. For the same molecule, the “Calculated LD10” value (Male albino mice; 14 days) was 108 mg/kg, the “Calculated LD50” value (Male albino mice; 14 days) was 125 mg/kg and the “Calculated LD90” value (Male albino mice; 14 days) was 150 mg/kg. The “% T/C” value (L1210/PDD; 6.25 mg/kg) was 115%, the “% T/C” value (L1210/PDD; 12.5 mg/kg) was 124% and the “% T/C” value (L1210/PDD; 25 mg/kg) was 135%. The “% T/C” value (L1210/PDD; 50 mg/kg) was 223%, the SURVIVORS (L1210/PDD; 50 mg/kg) was 3/10 and the “% T/C” value (L1210/PDD; 100 mg/kg) was 172%. For the same molecule, the ID50 ([2]; L1210, 72 hours incubation) was 5.0 µg/mL, the “% T/C” value (L1210/0 leukemia cells; 5 mg/kg, days 1-9) was 142% and the “% T/C” value (L1210/0 leukemia cells; 10 mg/kg, days 1,5,9) was 123%. The “% T/C” value (L1210/0 leukemia cells; 10 mg/kg, days 1-9) was 184%, the “% T/C” value (L1210/0 leukemia cells; 20 mg/kg, days 1,5,9) was 196% and the “Long Term Survivors” value (L1210/0 leukemia cells; 20 mg/kg, days 1,5,9) was 1/6. The “% T/C” value (L1210/0 leukemia cells; 20 mg/kg, days 1-9) was 239%, the “Long Term Survivors” value (L1210/0 leukemia cells; 20 mg/kg, days 1-9) was 1/6 and the “% T/C” value (L1210/0 leukemia cells; 25 mg/kg, days 1,5,9) was 176%. For the same molecule, the “% T/C” value (L1210/0 leukemia cells; 30 mg/kg, days 1,5,9) was 257%, the “Long Term Survivors” value (L1210/0 leukemia cells; 30 mg/kg, days 1,5,9) was 1/6 and the “% T/C” value (L1210/0 leukemia cells; 30 mg/kg, days 1,5,9,13) was 273%. For the same molecule, the “Long Term Survivors” value (L1210/0 leukemia cells; 30 mg/kg, days 1,5,9,13) was 1/6, the “% T/C” value (L1210/0 leukemia cells; Example 18, L1210/0, 6.25 mg/kg, days 1,5,9) was 117% and the “% T/C” value (L1210/0 leukemia cells; Example 18, L1210/0, 12.5 mg/kg, days 1,5,9) was 135%. The “% T/C” value (L1210/0 leukemia cells; [6]) was 181%, the SURVIVORS (L1210/0 leukemia cells; [6]) was 2/10 and the “% T/C” value (L1210/0 leukemia cells; [7]) was 247%. The SURVIVORS (L1210/0 leukemia cells; [7]) was 1/10, the “% T/C” value (L1210/0 leukemia cells; Example 18, L1210/0, 100 mg/kg, days 1,5,9) was 104% and the “% T/C” value (L1210 cells; 50 mg/kg) was 125%. For the same molecule, the “% T/C” value (L1210 cells; 60 mg/kg) was 163%, the “% T/C” value (L1210 cells; 75 mg/kg) was 143% and the “% T/C” value (L1210 cells; 90 mg/kg) was 145%. For the same molecule, the “% T/C” value (L1210 cells; 100 mg/kg) was “Toxic”.
